In patent US20120100097A1, “CELLULOSE SUPPORT CONTAINING D-MANNOSE DERIVATIVES” (priority 2009, published 2012):

Columns and labels:
[1] = tested on: Escherichia coli with type 1 pili (strain 382); format: cell-based; settings: minimum inhibitive concentration (mg/ml) divided by that of D-mannose, x100; lower = stronger; free mannose derivatives before copolymerization
Description: The conducted bacteriological test is an agglutination yeast test. In fact the bacteria Escherichia coli with type 1 pili, have the capacity to agglutinate yeasts. The agglutination may be prevented by mannose derivatives. The strain 382 of Escherichia coli obtained from National Bacteriological Laboratory of Stockholm, which expresses in a stable manner type 1 pili, is used. The expression of the pili can be enhanced by growing bacteria by way of three subcultures in a nutrient broth (NB, oxiod). After culture the bacteria are centrifuged and added as suspension in the same amount of phosphate buffered saline (PBS pH 7.2). A concentration of bacteria equal to 2-3.10^9 bacteria/ml is obtained. Baker's yeasts are added as suspension into PBS at a final concentration of 5.10^8 cells/ml. The various mannose derivatives are diluted from the initial concentration of 20 mg/ml maximum in two stages in PBS. Into 50 μl of each diluted sugar 50 μl of Escherichia coli is added and incubated at room temperature for 15 min to allow interaction. Finally 50 μl of yeast is added into each tube. After another 15 min. incubation at room temperature and one night at 4° C., agglutination, in other words interaction between bacteria and yeast, is evaluated.

[2] = tested on: Escherichia coli with type 1 pili (strain 382); format: cell-based; settings: agglutination test of the terpolymer directly on Escherichia coli strains; relative to D mannose = 100

For `OCC1O[C@H](OCc2ccccc2)C(O)[C@@H](O)[C@@H]1O` (stereo partly drawn) [Compound 10, Benzyl-α-D-Mannopyranoside], the “Inhibitive activity in %” value [1] was 24%.

`Nc1ccc(O[C@H]2O[C@H](CO)[C@@H](O)[C@H](O)[C@@H]2O)cc1` [Compound 12, p-Aminophenyl-α-D-Mannopyranoside] was tested, and the “Inhibitive activity in %” value [1] was 0.93%.

With `C=CCO[C@H]1OC(CO)[C@@H](O)C(O)C1O` (stereo partly drawn) [Compound 8, Allyl-α-D-mannopyranoside] the “Inhibitive activity in %” value [1] was 0.12%.

For `O=[N+]([O-])c1ccc(O[C@H]2O[C@H](CO)[C@@H](O)[C@H](O[C@H]3O[C@H](CO)[C@@H](O)[C@H](O)[C@@H]3O)[C@@H]2O)cc1` [Compound 15, p-Nitrophenyl 3-O-α-D-Mannopyranosyl-α-DMannopyranoside], the “Inhibitive activity in %” value [1] was 0.70%.

`COCCOCCO[C@H]1O[C@H](CO)[C@@H](O)[C@H](O)[C@@H]1O` [Compound 7, 2-[(2-methoxy-)ethoxy-]-ethyl α-D-Mannopyranoside] was tested, and the “Inhibitive activity in %” value [1] was 24%.

With `CO[C@H]1O[C@H](CO)[C@@H](O)[C@H](O)[C@@H]1O` [Methyl-α-D-Mannoside, reference compound] the “Inhibitive activity in %” value [1] was 45%.

With `OCCOCCO[C@H]1OC(CO)[C@@H](O)[C@H](O)C1O` (stereo partly drawn) [Compound 4, 2-[(2-hydroxy-)ethoxy-]-ethyl α-D-Mannopyranoside] the “Inhibitive activity in %” value [1] was 24%.

With `O=C[C@@H](O)[C@@H](O)[C@H](O)[C@H](O)CO` [D-Mannose] the Inhibitative activity [2] was 100% and the “Inhibitive activity in %” value [1] was 100%.

For `CCS[C@H]1O[C@H](CO)[C@@H](O)[C@H](O)[C@@H]1O` [Ethyl 1-thio-α-D-mannopyranoside, reference compound], the “Inhibitive activity in %” value [1] was 18%.
